Source: article PMC12261219, “Comparative Evaluation of Thiol- and Amine-Conjugating Moieties for Endogenous Albumin Binding after Intravenous Administration” (ACS Pharmacology & Translational Science, 2025)

Key:
[1] = biological target: T1, albumin (Homo sapiens, UniProt P02768); parameters: method as in Barbas et al.; conditions: equimolar DFSA/albumin ratios; ref Barbas et al.; cited from earlier work
T1 construct: purchased Sigma-Aldrich A8763

[2] = tested on: CT26 colon cancer cells; parameters: method as in Schueffl et al.; conditions: already described in earlier studies; ref Schueffl et al.; cited from earlier work
[3] = parameters: method as in Schueffl et al.; conditions: oxaliplatin data used from earlier paper, ref Schueffl et al., cited from earlier work
[4] = Stability of oxaliplatin in PB at pH 7.4 (HPLC); assay type: physicochemical; conditions: pH 7.4, 20 °C
Protocol: The samples were incubated at 20 °C and measured over 25 h. […] RP-HPLC runs were performed using a Waters Acquity UPLC HSS T3 column (100 Å, 1.8 μm, 3.0 mm × 50 mm) on a Dionex Thermo Scientific UltiMate 3000 HPLC system, equipped with a HPG-3400RS binary pump and a DAD-3000RS UV–vis detector. Chromatograms were evaluated at a wavelength of 230 nm. Milli-Q water (mobile phase A) and acetonitrile (mobile phase B), both containing 0.1% TFA, were used as eluents. The flow rate was consistent at 0.6 mL/min for all measurements using the following gradient: 0–0.5 min A 99:1 B, 0.5–5.5 min linear gradient to A 1:99 B, 5.5–6.5 min A 1:99 B, 6.5–9.2 min A 99:1 B.

[5] = serum platinum, i.v. 9 mg/kg oxaliplatin

T1 sequence (P02768 25-609): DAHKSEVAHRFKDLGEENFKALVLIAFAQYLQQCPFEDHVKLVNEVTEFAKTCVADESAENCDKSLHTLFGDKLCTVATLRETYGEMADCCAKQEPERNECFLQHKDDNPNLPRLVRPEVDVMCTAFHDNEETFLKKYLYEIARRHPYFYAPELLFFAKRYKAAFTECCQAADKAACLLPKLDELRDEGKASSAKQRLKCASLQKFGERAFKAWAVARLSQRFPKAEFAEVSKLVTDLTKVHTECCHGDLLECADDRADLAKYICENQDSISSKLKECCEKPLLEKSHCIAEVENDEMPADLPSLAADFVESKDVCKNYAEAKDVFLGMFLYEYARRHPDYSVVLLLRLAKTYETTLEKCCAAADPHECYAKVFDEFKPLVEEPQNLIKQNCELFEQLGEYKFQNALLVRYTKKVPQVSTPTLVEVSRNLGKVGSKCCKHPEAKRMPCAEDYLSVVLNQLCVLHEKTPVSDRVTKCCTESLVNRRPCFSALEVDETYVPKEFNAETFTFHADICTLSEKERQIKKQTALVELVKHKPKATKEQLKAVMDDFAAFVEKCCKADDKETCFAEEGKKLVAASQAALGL

SMILES	Albumin binding after 24 h [1]	Effect on overall survival in the CT26 model [2]	AUCPt_0-24 [3, 5] [mg·h/kg]	AUCPt_0-∞ [3, 5] [mg·h/kg]	Cmax ([3]; serum platinum, tmax=0.08 h) [mg/kg]	Half-life ([3]; terminal half-life) [h]	Vz ([3]; terminal phase) [kg/kg]	Percentage of AUCPt_0-∞ extrapolated from tlast to infinity ([3]; tlast=24 h) [%]	CL ([3]; total body clearance) [kg/h/kg]	Hydrolysis after 25 h [4] [%]
O=C(O)C1=CCCCC1S(=O)(=O)Nc1ccc(F)cc1F (stereo not shown) [DFSA, 6-(N-(2,4-difluorophenyl)-sulfamoyl)-cyclohex-1-ene-1-carboxylic acid]	less than 25%	–	–	–	–	–	–	–	–	–
O=C1[O][Pt]2([NH][C@@H]3CCCC[C@H]3[NH]2)[O]C1=O [oxaliplatin]	–	does not lead to prolonged overall survival	26.6	37.5	6.17	14.3	2.42	29.0	0.118	~15
